Converted amounts (≈) assume the structure as drawn. Like-named read-outs stand apart in the source and are kept apart here.
Key:
Assay type in all cases: cell-based
HeLa = experiment: cells; details: Homo sapiens; for GI50 / IC50 / IC (total growth inhibition): MTT; for IC50: read-out: IC50; for IC (total growth inhibition): read-out: TGI; for LC50 (concentration causing 50% net cell loss): read-out: LC50
In short: (§1)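 Seed ~1 × 10^4 cells/well; final 200 μL. Add MTT in phenol-red-free RPMI 1640, 4 h. Solubilise formazan in DMSO + Sorenson's buffer, 30 min RT. Read 560/690 nm. ≥3 repeats.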

MCF7 = experiment: cells; details: Homo sapiens; for LC50 (concentration causing 50% net cell loss relative to time zero): MCF7, read-out: LC50; for GI50 / IC50 / IC (total growth inhibition): MCF7, MTT; for IC50: read-out: IC50; for IC (total growth inhibition): read-out: TGI
In short: as §1

A549 = experiment: cells; details: Homo sapiens; for LC50 (concentration causing 50% net cell loss): A549, read-out: LC50; for GI50 / IC50 / IC (total growth inhibition): A549, MTT; for IC50: read-out: IC50; for IC (total growth inhibition): read-out: TGI
In short: as §1

Hep3B = experiment: cells; details: Homo sapiens; for GI50 / IC50 / IC (total growth inhibition): MTT; for IC50: read-out: IC50; for IC (total growth inhibition): read-out: TGI; for LC50 (concentration causing 50% net cell loss relative to time zero): read-out: LC50
In short: as §1

HT29 = experiment: cells; details: Homo sapiens; for LC50 (concentration giving 50% net cell loss relative to time zero): HT-29, read-out: LC50; for GI50 / IC50 / IC (total growth inhibition): HT-29, HT29, MTT; for IC50: read-out: IC50; for IC (total growth inhibition): read-out: TGI
In short: as §1

C6 (Rat brain glioma) = experiment: cells; details: Rattus norvegicus; for LC50 (concentration giving 50% net cell loss relative to time zero): read-out: LC50; for GI50 / IC50 / IC (total growth inhibition): C6, MTT; for IC50: read-out: IC50; for IC (total growth inhibition): read-out: TGI
In short: as §1

E. faecalis ATCC 29212 = experiment: Microdilution MIC assay; details: E. faecalis ATCC 29212, 24 h at 35 °C
In short: (§2)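 Visually scored microwell dilution test (35 °C, 24 h), endpoint no turbidity.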

S. gordonii NCTC 7870 = experiment: Microdilution MIC assay; details: Streptococcus gordonii, NCTC7870; S. gordonii NCTC 7870, 24 h at 35 °C
In short: as §2

[1] = system: A. actinomycetemcomitans ATCC 33384; experiment: Microdilution MIC assay; details: Aggregatibacter actinomycetemcomitans, ATCC33384; A. actinomycetemcomitans ATCC 33384, 24 h at 35 °C
In short: as §2

E. coli ESBL ATCC 35218 = experiment: Microdilution MIC assay; details: Escherichia coli, ATCC35218; E. coli ESBL ATCC 35218, 24 h at 35 °C
In short: as §2

[2] = system: S. aureus MRSA ATCC 46300; experiment: Microdilution MIC assay; details: Staphylococcus aureus; S. aureus MRSA ATCC 46300, 24 h at 35 °C; read-out: MIC
In short: as §2

S. aureus ATCC 25923 = experiment: Microdilution MIC assay; details: Staphylococcus aureus, ATCC25923, 24 h, S. aureus ATCC 25923, 24 h at 35 °C; read-out: MIC
In short: as §2

S. mutans ATCC 35668 = experiment: Microdilution MIC assay; details: S. mutans ATCC 35668, 24 h at 35 °C
In short: as §2

[3] = system: P. aeruginosa AGME ATCC 27853; experiment: Microdilution MIC assay; details: Pseudomonas aeruginosa, ATCC27853; P. aeruginosa AGME ATCC 27853, 24 h at 35 °C
In short: as §2

[4] = system: E. faecalis VRE ATCC 19433; experiment: Microdilution MIC assay; details: Enterococcus faecalis; E. faecalis VRE ATCC 19433, 24 h at 35 °C
In short: as §2

E. coli ATCC 25922 = experiment: Microdilution MIC assay; details: Escherichia coli, ATCC25922; E. coli ATCC 25922, 24 h at 35 °C
In short: as §2

[5] = LDH cytotoxic activity assay, HeLa; details: human, HeLa cells
In short: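 Cells grown in DMEM or RPMI 1640 with 10% FBS were seeded at about 5 × 10^3 per well in triplicate. They were exposed to 25, 50, 75 and 100 μg/mL compound for 24 h at 37 °C, 5% CO2, and LDH release was measured by absorbance at 492–630 nm.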

[6] = Enterococcus faecalis, ATCC29212, 24 h, read-out: MIC
[7] = Streptococcus mutans, ATCC35668, 24 h, read-out: MIC

SMILES	GI50 (HeLa)	IC50 (HeLa)	IC (total growth inhibition) (HeLa)	LC50 (concentration causing 50% net cell loss) (HeLa)	LC50 (concentration causing 50% net cell loss relative to time zero) (MCF7)	GI50 (MCF7)	IC50 (MCF7)	IC (total growth inhibition) (MCF7)	LC50 (concentration causing 50% net cell loss) (A549)	GI50 (A549)	IC50 (A549)	IC (total growth inhibition) (A549)	GI50 (Hep3B)	IC50 (Hep3B)	IC (total growth inhibition) (Hep3B)	LC50 (concentration causing 50% net cell loss relative to time zero) (Hep3B)	LC50 (concentration giving 50% net cell loss relative to time zero) (HT29)	GI50 (HT29)	IC50 (HT29)	IC (total growth inhibition) (HT29)	other results
CC(=O)OC[C@H]1O[C@@H](Nc2nc(-c3ccncc3)cc(-c3ccccc3C)n2)[C@H](OC(C)=O)[C@@H](OC(C)=O)[C@@H]1OC(C)=O [Compound 12, 2,3,4,6-tetra-O-acetyl-N-[4-(2-methylphenyl)-6-pyridin-4-ylpyrimidin-2-yl]-β-D-glucopyranosylamine]	> 500 µg/mL	> 500 µg/mL	> 500 µg/mL	> 500 µg/mL	> 500 µg/mL	1.22 µg/mL (≈ 2.06 µM)	> 500 µg/mL	> 500 µg/mL	> 500 µg/mL	> 500 µg/mL	> 500 µg/mL	> 500 µg/mL	4.88 µg/mL (≈ 8.23 µM)	> 500 µg/mL	> 500 µg/mL	> 500 µg/mL	> 500 µg/mL	2.23 µg/mL (≈ 3.76 µM)	298 µg/mL (≈ 503 µM)	> 500 µg/mL	LC50 (concentration giving 50% net cell loss relative to time zero) (C6 (Rat brain glioma)): 139 µg/mL (≈ 234 µM); GI50 (C6 (Rat brain glioma)): 2.03 µg/mL (≈ 3.43 µM); IC50 (C6 (Rat brain glioma)): 13 µg/mL (≈ 21.9 µM); IC (total growth inhibition) (C6 (Rat brain glioma)): 6.49 µg/mL; MIC (E. faecalis ATCC 29212; [6]): 250 µg/mL (≈ 422 µM); MIC (S. gordonii NCTC 7870): > 1000 µg/mL; MIC [1]: > 1000 µg/mL; MIC (E. coli ESBL ATCC 35218): > 1000 µg/mL; MIC [2]: 500 µg/mL (≈ 844 µM); MIC (S. aureus ATCC 25923): > 1000 µg/mL; MIC (S. mutans ATCC 35668): 62.5 µg/mL (≈ 105 µM); MIC (S. mutans ATCC 35668; [7]): 62.5 to 125 µg/mL (≈ 105 to 211 µM); MIC [3]: > 1000 µg/mL; MIC [4]: 1000 µg/mL (≈ 1690 µM); MIC (E. coli ATCC 25922): > 1000 µg/mL; cytotoxicity at 24 h, 25 μg/mL [5]: 18.8%; cytotoxicity at 24 h, 50 μg/mL [5]: 30.8%; cytotoxicity at 24 h, 75 μg/mL [5]: 42.6%; cytotoxicity at 24 h, 100 μg/mL [5]: 49.6%
CC(=O)OC[C@H]1O[C@@H](Nc2nc(-c3ccncc3)cc(-c3cccc(C)c3)n2)[C@H](OC(C)=O)[C@@H](OC(C)=O)[C@@H]1OC(C)=O [Compound 15, 2,3,4,6-tetra-O-acetyl-N-[4-(3-methylphenyl)-6-pyridin-4-ylpyrimidin-2-yl]-β-D-glucopyranosylamine]	> 500 µg/mL	> 500 µg/mL	> 500 µg/mL	> 500 µg/mL	> 500 µg/mL	4.1 µg/mL (≈ 6.92 µM)	> 500 µg/mL	> 500 µg/mL	> 500 µg/mL	> 500 µg/mL	> 500 µg/mL	> 500 µg/mL	5.55 µg/mL (≈ 9.37 µM)	> 500 µg/mL	> 500 µg/mL	> 500 µg/mL	> 500 µg/mL	5 µg/mL (≈ 8.44 µM)	> 500 µg/mL	> 500 µg/mL	LC50 (concentration giving 50% net cell loss relative to time zero) (C6 (Rat brain glioma)): 71.2 µg/mL (≈ 120 µM); GI50 (C6 (Rat brain glioma)): 2.21 µg/mL (≈ 3.73 µM); IC50 (C6 (Rat brain glioma)): 11.2 µg/mL (≈ 19 µM); IC (total growth inhibition) (C6 (Rat brain glioma)): 6.3 µg/mL; MIC (E. faecalis ATCC 29212): 31.25 µg/mL (≈ 52.7 µM); MIC (E. faecalis ATCC 29212; [6]): 31.2 to 125 µg/mL (≈ 52.7 to 211 µM); MIC (S. gordonii NCTC 7870): > 1000 µg/mL; MIC [1]: > 1000 µg/mL; MIC (E. coli ESBL ATCC 35218): > 1000 µg/mL; MIC [2]: 250 µg/mL (≈ 422 µM); MIC (S. aureus ATCC 25923): 500 µg/mL (≈ 844 µM); MIC (S. mutans ATCC 35668): 62.5 µg/mL (≈ 105 µM); MIC (S. mutans ATCC 35668; [7]): 62.5 to 125 µg/mL (≈ 105 to 211 µM); MIC [3]: > 1000 µg/mL; MIC [4]: 1000 µg/mL (≈ 1690 µM); MIC (E. coli ATCC 25922): > 1000 µg/mL; cytotoxicity at 24 h, 25 μg/mL [5]: 18.4%; cytotoxicity at 24 h, 50 μg/mL [5]: 31.7%; cytotoxicity at 24 h, 75 μg/mL [5]: 37.1%; cytotoxicity at 24 h, 100 μg/mL [5]: 56%
CC(=O)OC[C@H]1O[C@@H](Nc2nc(-c3cccnc3)cc(-c3cccc(C)c3)n2)[C@H](OC(C)=O)[C@@H](OC(C)=O)[C@@H]1OC(C)=O [Compound 14, 2,3,4,6-tetra-O-acetyl-N-[4-(3-methylphenyl)-6-pyridin-3-ylpyrimidin-2-yl]-β-D-glucopyranosylamine]	> 500 µg/mL	> 500 µg/mL	> 500 µg/mL	> 500 µg/mL	> 500 µg/mL	1.95 µg/mL (≈ 3.29 µM)	> 500 µg/mL	> 500 µg/mL	> 500 µg/mL	430 µg/mL (≈ 726 µM)	> 500 µg/mL	> 500 µg/mL	4.9 µg/mL (≈ 8.27 µM)	> 500 µg/mL	> 500 µg/mL	> 500 µg/mL	> 500 µg/mL	2.28 µg/mL (≈ 3.85 µM)	> 500 µg/mL	> 500 µg/mL	LC50 (concentration giving 50% net cell loss relative to time zero) (C6 (Rat brain glioma)): > 500 µg/mL; GI50 (C6 (Rat brain glioma)): > 500 µg/mL; IC50 (C6 (Rat brain glioma)): > 500 µg/mL; IC (total growth inhibition) (C6 (Rat brain glioma)): > 500 µg/mL; MIC (E. faecalis ATCC 29212): 31.25 µg/mL (≈ 52.7 µM); MIC (E. faecalis ATCC 29212; [6]): 31.2 to 125 µg/mL (≈ 52.7 to 211 µM); MIC (S. gordonii NCTC 7870): > 1000 µg/mL; MIC [1]: > 1000 µg/mL; MIC (E. coli ESBL ATCC 35218): > 1000 µg/mL; MIC [2]: 250 µg/mL (≈ 422 µM); MIC (S. aureus ATCC 25923): 500 µg/mL (≈ 844 µM); MIC (S. mutans ATCC 35668): 62.5 µg/mL (≈ 105 µM); MIC (S. mutans ATCC 35668; [7]): 62.5 to 125 µg/mL (≈ 105 to 211 µM); MIC [3]: > 1000 µg/mL; MIC [4]: 1000 µg/mL (≈ 1690 µM); MIC (E. coli ATCC 25922): > 1000 µg/mL; cytotoxicity at 24 h, 25 μg/mL [5]: 16.6%; cytotoxicity at 24 h, 50 μg/mL [5]: 28.8%; cytotoxicity at 24 h, 75 μg/mL [5]: 33.5%; cytotoxicity at 24 h, 100 μg/mL [5]: 48.8%

— paper PMC10387993, “New pyrimidine-N-β-D-glucosides: synthesis, biological evaluation, and molecular docking investigations” (Turkish Journal of Chemistry, 2023)
